Measurements from patent US8937071B2, “Compounds as rearranged during transfection (RET) inhibitors” (GlaxoSmithKline Intellectual Property Development Limited, priority 2013, dated 2015).
Structures can show the parent of a compound that is named as a salt. Where two headings read alike, the source gives them in different places.

What was measured:
TT cells = assay: RET kinase cell-based proliferation assay; design: species or system human; conditions: 192 h, read-out: RET IC50
Excerpt: RET Kinase Cell-Based Proliferation Assay

RET kinase = RET kinase (Homo sapiens, UniProt P07949, C634W); assay: RET kinase cell-based mechanistic assay (constitutive RET kinase phosphorylation in TT cells)
Description: RET Kinase Cell-Based Mechanistic Assay
The potency of the compound of the invention was tested for its ability to inhibit constitutive RET kinase phosphorylation in cell-based assay. […] 1.0E5 TT cells/well were plated in a 96-well cell culture plate and allowed to adhere overnight. […] IC50s were fitted using GraphPad Prism to a sigmoidal dose response.

[1] = human RET kinase cell-based proliferation assay, TT cells, eight days, CellTiter-Glo, Table 4

RET kinase, sequence (P07949 29-1114 C634W): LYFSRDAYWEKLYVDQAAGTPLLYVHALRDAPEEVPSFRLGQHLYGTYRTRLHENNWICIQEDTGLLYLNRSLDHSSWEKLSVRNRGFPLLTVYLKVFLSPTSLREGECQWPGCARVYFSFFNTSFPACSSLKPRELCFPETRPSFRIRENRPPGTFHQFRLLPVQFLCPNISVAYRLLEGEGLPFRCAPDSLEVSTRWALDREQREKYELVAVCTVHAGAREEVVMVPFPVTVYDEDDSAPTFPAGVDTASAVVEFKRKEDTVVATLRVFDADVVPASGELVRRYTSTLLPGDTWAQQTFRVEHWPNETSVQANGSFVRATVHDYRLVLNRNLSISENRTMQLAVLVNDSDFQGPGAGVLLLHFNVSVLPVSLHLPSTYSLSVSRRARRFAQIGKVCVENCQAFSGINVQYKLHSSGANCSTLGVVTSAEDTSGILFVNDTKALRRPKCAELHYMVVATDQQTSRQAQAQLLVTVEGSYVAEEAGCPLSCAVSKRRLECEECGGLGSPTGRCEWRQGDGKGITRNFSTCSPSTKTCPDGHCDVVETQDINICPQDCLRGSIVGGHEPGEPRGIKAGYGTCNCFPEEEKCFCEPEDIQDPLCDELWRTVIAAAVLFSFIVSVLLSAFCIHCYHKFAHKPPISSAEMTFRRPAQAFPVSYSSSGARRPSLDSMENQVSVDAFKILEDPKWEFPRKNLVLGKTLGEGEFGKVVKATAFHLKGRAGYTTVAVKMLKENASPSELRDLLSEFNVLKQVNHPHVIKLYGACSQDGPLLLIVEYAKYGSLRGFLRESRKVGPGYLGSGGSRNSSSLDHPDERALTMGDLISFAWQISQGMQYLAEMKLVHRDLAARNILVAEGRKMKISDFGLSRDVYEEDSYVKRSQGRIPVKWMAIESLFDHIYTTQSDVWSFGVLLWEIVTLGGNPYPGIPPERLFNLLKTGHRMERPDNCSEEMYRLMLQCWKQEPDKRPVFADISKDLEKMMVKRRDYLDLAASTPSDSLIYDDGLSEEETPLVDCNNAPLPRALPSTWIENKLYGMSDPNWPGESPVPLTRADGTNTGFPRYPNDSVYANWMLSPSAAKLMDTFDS

| Structure (SMILES) | IC50 (TT cells; [1]) [nM] | IC50 (RET kinase) [nM] | IC50 (TT cells; Homo sapiens, TT) [nM] |
| --- | --- | --- | --- |
| CCOc1cc(-c2ccc(CC(=O)Nc3cnc(C(C)(C)O)c(C(F)(F)F)c3)c(F)c2)c[nH]c1=O [Example 1, 2-(4-(5-Ethoxy-6-oxo-1,6-dihydropyridin-3-yl)-2-fluorophenyl)-N-(6-(2-hydroxypropan-2-yl)-5-(trifluoromethyl)pyridin-3-yl)acetamide] | 100 to 500 | 100 to 500 | – |
| CCOc1ncc(NC(=O)Cc2ccc(-c3c[nH]c(=O)c(OCC)c3)cc2F)cc1C(F)(F)F [Example 2, N-(6-Ethoxy-5-(trifluoromethyl)pyridin-3-yl)-2-(4-(5-ethoxy-6-oxo-1,6-dihydropyridin-3-yl)-2-fluorophenyl)acetamide, Hydrochloride] | – | < 100 | 100 to 500 |
| CCOc1cc(-c2ccc(CC(=O)Nc3ccc(CC(C)(C)CO)c(C(F)(F)F)c3)c(F)c2)c[nH]c1=O [Example 5, 2-(4-(5-Ethoxy-6-oxo-1,6-dihydropyridin-3-yl)-2-fluorophenyl)-N-(4-(3-hydroxy-2,2-dimethylpropyl)-3-(trifluoromethyl)phenyl)acetamide] | < 100 | < 100 | – |
| CCOc1cc(-c2ccc(CC(=O)Nc3ccc(CC(C)(C)CO)c(C(F)(F)F)c3)cc2F)c[nH]c1=O [Example 6, 2-(4-(5-Ethoxy-6-oxo-1,6-dihydropyridin-3-yl)-3-fluorophenyl)-N-(4-(3-hydroxy-2,2-dimethylpropyl)-3-(trifluoromethyl)phenyl)acetamide] | < 100 | < 100 | – |
| CCOc1cc(=O)[nH]cc1-c1ccc(CC(=O)Nc2ccc(C#N)c(C(F)(F)F)c2)cc1F [Example 7, N-(4-Cyano-3-(trifluoromethyl)phenyl)-2-(4-(4-ethoxy-6-oxo-1,6-dihydropyridin-3-yl)-3-fluorophenyl)acetamide] | 100 to 500 | 100 to 500 | – |
| CCOc1cc(-c2ccc(CC(=O)Nc3ccc(C#N)c(C(F)(F)F)c3)c(F)c2)c[nH]c1=O [Example 9, N-(4-Cyano-3-(trifluoro-methyl)phenyl)-2-(4-(5-ethoxy-6-oxo-1,6-dihydro-pyridin-3-yl)-2-fluorophenyl)acetamide] | 100 to 500 | 100 to 500 | – |
| CCOc1cc(-c2ccc(CC(=O)Nc3cc(-n4cnc(C)c4)cc(C(F)(F)F)c3)c(F)c2)c[nH]c1=O [Example 11, 2-(4-(5-Ethoxy-6-oxo-1,6-dihydropyridin-3-yl)-2-fluorophenyl)-N-(3-(4-methyl-1H-imidazol-1-yl)-5-(trifluoromethyl)phenyl)acetamide, Hydrochloride] | – | < 100 | 100 to 500 |
| CCOc1cc(-c2ccc(CC(=O)Nc3ccc(OCCO)c(C(F)(F)F)c3)c(F)c2)c[nH]c1=O [Example 13, 2-(4-(5-Ethoxy-6-oxo-1,6-dihydropyridin-3-yl)-2-fluorophenyl)-N-(4-(2-hydroxyethoxy)-3-(trifluoromethyl)phenyl)acetamide] | 100 to 500 | 100 to 500 | – |
| CCOc1cc(-c2ccc(CC(=O)Nc3ccc(Cl)c(C(F)(F)F)c3)c(F)c2)c[nH]c1=O [Example 16, N-(4-Chloro-3-(trifluoromethyl)phenyl)-2-(4-(5-ethoxy-6-oxo-1,6-dihydropyridin-3-yl)-2-fluorophenyl)acetamide] | < 100 | 100 to 500 | – |
| CCOc1cc(-c2ccc(CC(=O)Nc3ccc(CN(C)C)c(C(F)(F)F)c3)c(F)c2)c[nH]c1=O [Example 17, N-(4-((Dimethylamino)methyl)-3-(trifluoromethyl)phenyl)-2-(4-(5-ethoxy-6-oxo-1,6-dihydropyridin-3-yl)-2-fluorophenyl)acetamide, Hydrochloride] | – | < 100 | 100 to 500 |
| CCOc1cc(-c2ccc(CC(=O)Nc3ccc(Cl)c(Cl)c3)c(F)c2)c[nH]c1=O [Example 18, N-(3,4-Dichlorophenyl)-2-(4-(5-ethoxy-6-oxo-1,6-dihydropyridin-3-yl)-2-fluorophenyl)acetamide] | 500 to 10000 | 500 to 10000 | – |
| CCOc1cc(-c2ccc(CC(=O)Nc3cc(C(C)(C)C(F)(F)F)on3)c(F)c2)c[nH]c1=O [Example 19, 2-(4-(5-Ethoxy-6-oxo-1,6-dihydropyridin-3-yl)-2-fluorophenyl)-N-(5-(1,1,1-trifluoro-2-methylpropan-2-yl)isoxazol-3-yl)acetamide] | < 100 | < 100 | – |
| CCOc1cc(-c2ccc(CC(=O)Nc3ccc(CN4CCN(CC)CC4)c(C(F)(F)F)c3)c(F)c2)c[nH]c1=O [Example 21, 2-(4-(5-Ethoxy-6-oxo-1,6-dihydropyridin-3-yl)-2-fluorophenyl)-N-(4-((4-ethylpiperazin-1-yl)methyl)-3-(trifluoromethyl)phenyl)acetamide, 2 Hydrochloride] | < 100 | – | – |
| CCOc1cc(-c2ccc(CC(=O)Nc3ccc(C(N)=O)c(C(F)(F)F)c3)c(F)c2)c[nH]c1=O [Example 23, 4-(2-(4-(5-ethoxy-6-oxo-1,6-dihydropyridin-3-yl)-2-fluorophenyl)acetamido)-2-(trifluoromethyl)benzamide] | 500 to 10000 | 500 to 10000 | – |
| CCOc1cc(-c2ccc(CC(=O)Nc3cc(C(F)(F)F)c(F)cc3F)c(F)c2)c[nH]c1=O [Example 24, N-(2,4-difluoro-5-(trifluoromethyl)phenyl)-2-(4-(5-ethoxy-6-oxo-1,6-dihydropyridin-3-yl)-2-fluorophenyl)acetamide] | 500 to 10000 | 100 to 500 | – |
| CCOc1cc(-c2ccc(CC(=O)Nc3cc(C(F)(F)F)cc(C(F)(F)F)c3)c(F)c2)c[nH]c1=O [Example 25, N-(3,5-bis(trifluoromethyl)phenyl)-2-(4-(5-ethoxy-6-oxo-1,6-dihydropyridin-3-yl)-2-fluorophenyl)acetamide] | 500 to 10000 | 100 to 500 | – |
| CCOc1cc(-c2ccc(CC(=O)Nc3cc(C(F)(F)F)ccc3F)c(F)c2)c[nH]c1=O [Example 26, 2-(4-(5-ethoxy-6-oxo-1,6-dihydropyridin-3-yl)-2-fluorophenyl)-N-(2-fluoro-5-(trifluoromethyl)phenyl)acetamide] | 500 to 10000 | – | – |
